Results published in patent US20060019890A1, “Method for treating cardiac remodeling following myocardial injury” (priority 2004, published 2006).

Key:
[1] = tested on: human cardiac fibroblasts; assay: Real-time RT-PCR gene expression in cardiac fibroblasts; format: cell-based; details: for ACTA2 expression level relative to control / CTGF expression level relative to control / Collagen 1 expression level relative to control / Fibronectin expression level relative to control / IL6 expression level relative to control / IL11 expression level relative to control / PTGS2/COX-2 expression level relative to control / SERPINE1/PAI-1 expression level relative to control / TIMP3 expression level relative to control: normalized to 18s RNA; for effect on BNP inhibition of TGFβ-induced Collagen-1 expression, real-time RT-PCR: U0126 0.1-10 μmol/L, PD98059 10 μmol/L
Description: Real-time RT-PCR^18 was performed in a two-step manner. cDNA synthesis and real-time detection were carried out in a PTC-100™ Thermal Cycler (MJ Research Inc, Waltham, Mass.) and an ABI Prism™ 7700 Sequence Detection System (Applied Biosystems, Foster City, Calif.), respectively. Random hexamers (Qiagen, Valencia, Calif.) were used to generate cDNA from 200 ng RNA as described in Applied Biosystems User Bulletin #2. TaqMan™ PCR Core Reagent Kit or TaqMan™ Universal PCR Master Mix (Applied Biosystems) were used in subsequent PCR reactions according to the manufacturer's protocols. Relative quantitation of gene expression was performed using the relative standard curve method. All real-time RT-PCR reactions were performed in triplicate.
Sequence specific primers and probes were designed using Primer Express Version 2 software (Applied Biosystems). Sequences of primers and probes can be found in Table 1 below. Expression levels were normalized to 18S rRNA. The selection of 18S rRNA as an endogenous control was based on an evaluation of the ΔCT levels (Applied Biosystems document # 4308134C) of 6 “housekeeping” genes: Cyclophilin A, 18S, GAPDH, β-actin, β-Glucuronidase, and Hypoxanthine Guanine Phosphoribosyl Transferase.

[2] = tested on: human cardiac fibroblasts; assay: Western blot analysis of Collagen 1 and Fibronectin protein; format: cell-based; details: 48 h; for effect on BNP inhibition of TGFβ-induced Collagen-1 expression, Western blot: U0126 0.1-10 μmol/L, PD98059 10 μmol/L
Description: (§1) Lysis was induced with 0.2 ml of buffer containing 20 mM Tris-HCL, pH 7.9, 137 mM NaCl, 1% Triton X-100, 5 mM EDTA, 10 mM NaF, 1 mM β-glycerophosphate, and protease inhibitor cocktail. The protein concentration of each lysate was measured using coomassie protein reagent from PIERCE. Twenty μg of protein from each sample was loaded and electrophoresed on 4-12% gradient polyacrylamide gels and electrophoretically transferred to nitrocellulose membranes (Invitrogen, San Diego, Calif.). The membranes were incubated with rabbit anti-human Collagen 1 antibody (Cortex Biochem, San Leandro, Calif.), HRP-conjugated anti-human Fibronectin antibody, or goat anti-Actin antibody (Santa Cruz Biotehnology, Santa Cruz, Calif.) in TBST buffer containing 20 mM Tris-HCl, pH 7.5, 150 mM NaCl, 0.1% Tween-20, and 5% nonfat dried milk at 4° C. for ˜16 h. For ERK phosphorylation, cells were treated with 0.5 μmol/L BNP in the presence of 1 μmol/L KT5823 or 10 μmol/L U0126 for 15 min; the membranes were incubated with rabbit anti-human phospho-ERK ½ antibody or rabbit anti-human ERK ½ antibody (Cell Signaling, Beverly, Mass.). For secondary antibody detection, membranes were incubated with HRP-conjugated anti-rabbit antibody or anti-goat antibody at room temperature for 1 h and washed 3 times with TBST buffer. The blots were soaked in ECL Plus reagent for 5 min and exposed to KODAK x-ray film. Signals were identified and quantified using a Typhoon Scanner and Densitometer from Amersham Biosciences (Piscataway, N.J.). Data was analyzed by ANOVA using the Newman-Keuls test to assess significance. Results cGMP Production in Cardiac Fibroblasts

[3] = tested on: ERK; assay: Western analysis of ERK phosphorylation; format: cell-based, human; details: 15 min; for effect on BNP induced ERK phosphorylation: KT5823 1 μmol/L or U0126 10 μmol/L
Description: as §1

[4] = Degradation of added BNP in cardiac fibroblast culture (immunoreactive assays and cGMP stimulation cell bioassays); format: in vitro ADME; details: human, primary human cardiac fibroblasts in culture, within 24 h, read-out: added BNP metabolized
Description: Two lots of primary human cardiac fibroblasts, derived from a person (lot 1) and a person (lot 2), were provided by Cambrex Bio Science (Walkersville, Md.). […] Cells at passage 3-5 were cultured in FGM containing 15% FBS. At confluence, cells were split and cultured in 6-well plates for 24 h.

[5] = tested on: acute myocardial injury; assay: Systolic blood pressure (tail cuff) in L-NAME/AngII acute myocardial injury model; format: in vivo; details: rat BNP i.v. infusion day 10 to day 14
Description: (§2) In a related study, an in vivo model for acute myocardial injury was used to explore the effects of BNP. Male Sprague Dawley rats ranging in weight from 225 to 250 gm were utilized. Acute myocardial injury was induced by administration of Nω-nitro-L-arginine methyl ester (L-NAME, 40 mg/kg/day)salt (1% NaCl) plus angiotensin II (AngII, 0.5 mg/kg/day) in the rats. The L-NAME was administered in drinking water from day 1 to day 14. Angiotensin II was continuously infused subcutaneously with an osmotic pump from day 11 to day 14. Rat BNP ([…]) was intravenously infused through an external infusion pump from day 10 to day 14.
(§3) Systolic blood pressure, plasma level of aldosterone, cardiac function heart/body weight ration and gene expression in the heart were analyzed. Systolic blood pressure was monitored via tail cuff technique with an IITC blood pressure recording system. Cardiac function was monitored via a Millar ARIA Pressure Volume Conductance System with an 1.4 F catheter. Gene expression as referenced above with results provided in FIG. 12 were monitored by RT-PCR with an ABI Prism™ 7700 sequence detection system.

[6] = Plasma level of aldosterone in L-NAME/AngII acute myocardial injury model; format: in vivo; details: L-NAME/AngII rats, rat BNP i.v. infusion day 10 to day 14
Description: as §2, §3

[7] = tested on: acute myocardial injury; assay: Cardiac function (Millar pressure volume conductance system) in L-NAME/AngII acute myocardial injury model; format: in vivo, rat; details: L-NAME/AngII rats
Description: as §2, §3

[8] = tested on: acute myocardial injury; assay: Heart/body weight ratio in L-NAME/AngII acute myocardial injury model; format: in vivo; details: L-NAME/AngII rats, rat BNP i.v. infusion day 10 to day 14
Description: as §2, §3

[9] = tested on: acute myocardial injury; assay: Gene expression in the heart by RT-PCR in L-NAME/AngII acute myocardial injury model; format: in vivo, rat; details: stimulated by L-NAME plus angiotensin II
Description: In a related study, a gene microassay profile of rat heart tissue was conducted. Fibrotic and extracellular matrix associated genes were stimulated in vivo by L-NAME plus angiotensin II.
as §2, §3

[10] = tested on: human cardiac fibroblasts; assay: cDNA microarray gene expression profiling of TGFβ- and/or BNP-treated cardiac fibroblasts
Description: Two lots of primary human cardiac fibroblasts, derived from a person (lot 1) and a person (lot 2), were provided by Cambrex Bio Science (Walkersville, Md.). Cells stained positive for α-smooth muscle actin and vimenfin antibodies corroborating their identity as cardiac fibroblasts and myofibroblasts. Both lots were used for the real-time RT-PCR studies; lot 1 was used for the microarray analysis. Cells at passage 3-5 were cultured in FGM containing 15% FBS. At confluence, cells were split and cultured in 6-well plates for 24 h.
Gene expression profiles were determined from cDNA microarrays containing 8,600 elements derived from clones isolated from normalized cDNA libraries or purchased from ResGen (Invitrogen Life Technologies, Carlsbad, Calif.). DNA for spotting was generated by PCR amplification using 5′amino-modified primers (BD Biosciences Clontech, Palo Alto, Calif.) derived from flanking vector sequences. Amplified DNA was purified in a 96-well format using Qiagen's Qiaquick columns (Valencia, Calif.) according to the manufacturer's recommendations. Samples were eluted in Milli-Q purified water, dried to completion and resuspended in 7 μl of 3×SSC. A fluorescent assay using PicoGreen (Molecular Probes, Eugene, Oreg.) was randomly performed on 12% of the PCR products to determine the average yield after purification; yields were ˜1.5 μg of DNA which corresponds to a concentration of 214 μg/ml. Purified DNA was arrayed from 384-well microtiter plates onto lysine-coated glass slides using an OmniGrid II microarrayer (GeneMachines, San Carlos, Calif.). After printing, DNA was cross-linked to the glass with 65 mjoules UV irradiation and reactive amines were blocked by treatment with succinic anhydride.
Total RNA was extracted from cells using Qiagen's RNeasy kit; two wells from a 6 well plate were pooled to yield a total of 4×10^5 cells per treatment. RNA was amplified using a modified Eberwine protocol^5 that incorporated a polyA tail into the amplified RNA. Fluorescently-labeled cDNA probes were generated by reverse transcription of 4 μg of RNA with SuperScript II (Invitrogen Life Technologies, Carlsbad, Calif.) using anchored dT primers in the presence of Cy3 or Cy5 dUTP (Amersham, Piscataway, N.J.). Labeled cDNA probe pairs were precipitated with ethanol and purified using Qiaquick columns. Twenty μg each of poly(A) DNA, yeast tRNA, and human Cot1 DNA (Applied Genetics, Melbourne, Fla.) was added to the eluant. The samples were dried to completion and resuspended in 12.5 μl 3×SSC, 0.1% SDS. Probes were heated to 95° C. for 5 minutes, applied to the arrays under a 22 mm^2 cover slip and allowed to hybridize for at least 16 h at 65° C. The arrays were washed at 55° C. for 10 minutes in 2×SSC, 0.1% SDS, followed by two washes at room temperature in 1×SSC (10 min) and 0.2×SSC (15 min). Hybridization of each fluorophore was quantified using an Axon GenePix 4000A scanner.
Differential expression values were expressed as the ratio of the median of background-subtracted fluorescent intensity of the experimental RNA to the median of background-subtracted fluorescent intensity of the control RNA. For ratios greater than or equal to 1.0, the ratio was expressed as a positive value. For ratios less than 1.0, the ratio was expressed as the negative reciprocal (i.e., a ratio of 0.5=−2.0). Median ratios were normalized to 1.0 using two pools of 3000 randomly chosen cDNAs in each pool. Six replicates of each of the two pools were printed in 4 evenly distributed blocks of the array. Expression data was rejected if neither channel produced a signal of at least 2.0-fold over background. Differential expression ratios were determined as the mean of the two values from dye-swapped duplicates.

[11] = rat BNP i.v. infusion day 10 to day 14
[12] = TGFβ-stimulated cells, microarray

CC[C@H](C)[C@@H]1NC(=O)[C@H](CCCNC(=N)N)NC(=O)[C@H](CC(=O)O)NC(=O)[C@H](CCSC)NC(=O)[C@H](CCCCN)NC(=O)[C@H](CCCNC(=N)N)NC(=O)CNC(=O)[C@H](Cc2ccccc2)NC(=O)[C@@H](NC(=O)CNC(=O)[C@H](CO)NC(=O)CNC(=O)[C@H](CCC(N)=O)NC(=O)[C@@H](NC(=O)[C@H](CCSC)NC(=O)[C@H](CCCCN)NC(=O)[C@@H]2CCCN2C(=O)[C@@H](N)CO)C(C)C)CSSC[C@@H](C(=O)N[C@@H](CCCCN)C(=O)N[C@H](C(=O)N[C@@H](CC(C)C)C(=O)N[C@@H](CCCNC(=N)N)C(=O)N[C@@H](CCCNC(=N)N)C(=O)N[C@@H](Cc2c[nH]cn2)C(=O)O)C(C)C)NC(=O)CNC(=O)[C@H](CC(C)C)NC(=O)CNC(=O)[C@H](CO)NC(=O)[C@H](CO)NC(=O)[C@H](CO)NC(=O)[C@H](CO)NC1=O [BNP, brain natriuretic peptide]
effect on TGFβ induction of Collagen 1 mRNA levels ([1]; 6, 24 and 48 h): blocked | ACTA2 expression level relative to control ([1]; 6 h, lot 1): 0.8 ± 0.12 | CTGF expression level relative to control ([1]; 6 h, lot 1): 0.9 ± 0.24 | Collagen 1 expression level relative to control ([1]; 6 h, lot 1): 1.0 ± 0.05 | Fibronectin expression level relative to control ([1]; 6 h, lot 1): 0.9 ± 0.19 | IL6 expression level relative to control ([1]; 6 h, lot 1): 0.9 ± 0.02 | IL11 expression level relative to control ([1]; 6 h, lot 1): 1.1 ± 0.04 | PTGS2/COX-2 expression level relative to control ([1]; 6 h, lot 1): 1.2 ± 0.22 | SERPINE1/PAI-1 expression level relative to control ([1]; 6 h, lot 1): 0.7 ± 0.08 | TIMP3 expression level relative to control ([1]; 6 h, lot 1): 0.9 ± 0.11 | ACTA2 expression level relative to control ([1]; 24 h, lot 1): 0.9 ± 0.11 | CTGF expression level relative to control ([1]; 24 h, lot 1): 1.0 ± 0.29 | Collagen 1 expression level relative to control ([1]; 24 h, lot 1): 1.1 ± 0.13 | Fibronectin expression level relative to control ([1]; 24 h, lot 1): 1.0 ± 0.10 | IL6 expression level relative to control ([1]; 24 h, lot 1): 0.9 ± 0.21 | PTGS2/COX-2 expression level relative to control ([1]; 24 h, lot 1): 1.2 ± 0.38 | SERPINE1/PAI-1 expression level relative to control ([1]; 24 h, lot 1): 0.7 ± 0.01 | TIMP3 expression level relative to control ([1]; 24 h, lot 1): 1.0 ± 0.12 | ACTA2 expression level relative to control ([1]; 24 h, lot 2): 0.9 ± 0.25 | Fibronectin expression level relative to control ([1]; 24 h, lot 2): 0.9 ± 0.24 | IL6 expression level relative to control ([1]; 24 h, lot 2): 0.9 ± 0.07 | IL11 expression level relative to control ([1]; 24 h, lot 2): 1.0 ± 0.05 | SERPINE1/PAI-1 expression level relative to control ([1]; 24 h, lot 2): 0.7 ± 0.11 | TIMP3 expression level relative to control ([1]; 24 h, lot 2): 0.7 ± 0.09 | effect on TGFβ-induced Fibronectin mRNA expression ([1]; 48 h): inhibited | ACTA2 expression level relative to control ([1]; 48 h, lot 1): 1.0 ± 0.03 | Collagen 1 expression level relative to control ([1]; 48 h, lot 1): 1.2 ± 0.03 | Fibronectin expression level relative to control ([1]; 48 h, lot 1): 1.1 ± 0.04 | IL6 expression level relative to control ([1]; 48 h, lot 1): 0.9 ± 0.03 | IL11 expression level relative to control ([1]; 48 h, lot 1): 0.7 ± 0.10 | PTGS2/COX-2 expression level relative to control ([1]; 48 h, lot 1): 1.0 ± 0.12 | SERPINE1/PAI-1 expression level relative to control ([1]; 48 h, lot 1): 0.9 ± 0.00 | TIMP3 expression level relative to control ([1]; 48 h, lot 1): 0.9 ± 0.00 | ACTA2 expression level relative to control ([1]; 48 h, lot 2): 0.7 ± 0.11 | Collagen 1 expression level relative to control ([1]; 48 h, lot 2): 1.0 ± 0.01 | Fibronectin expression level relative to control ([1]; 48 h, lot 2): 1.0 ± 0.11 | IL6 expression level relative to control ([1]; 48 h, lot 2): 0.9 ± 0.06 | IL11 expression level relative to control ([1]; 48 h, lot 2): 0.8 ± 0.09 | PTGS2/COX-2 expression level relative to control ([1]; 48 h, lot 2): 1.0 ± 0.06 | SERPINE1/PAI-1 expression level relative to control ([1]; 48 h, lot 2): 0.8 ± 0.03 | TIMP3 expression level relative to control ([1]; 48 h, lot 2): 0.6 ± 0.00 | effect on TGFβ-induced Fibronectin protein expression [2]: inhibited | inhibition of TGFβ-stimulated Collagen 1 protein synthesis [2]: ~75% | ERK phosphorylation ([3]; BNP 0.5 μmol/L): activates ERK | metabolised at 24 h [4]: 50% | effect on systolic blood pressure raised by L-NAME+AngII [5]: no effect | plasma aldosterone [6]: 6.6 ± 0.16 ng/mL | effect on cardiac output [7]: increases | effect on heart rate [7]: no effect | effect on maximum dP/dt [7]: increased | effect on minimum dP/dt [7]: increased | arterial elastance [7, 11]: 42.6±5.1 mmHg/ul | diastolic volume [7, 11]: 22.4 ± 1.1 µL | ejection fraction [7, 11]: 20.4±2.4% | stroke volume [7, 11]: 4.74 ± 0.73 µL | stroke work [7, 11]: 531.5±99.1 mmH*ul | heart/body weigh ratio [8]: 0.0029±0.001 | mRNA expression for collagen I in rat heart [9]: markedly reduced | mRNA expression for collagen III in rat heart [9]: markedly reduced | mRNA expression for fibronectin in rat heart [9]: markedly reduced | TGFβ-regulated gene expression events opposed ([10]; 24 h): ~88% | TGFβ-regulated gene expression events opposed ([10]; 48 h): ~85% | effect on TGFβ-induction of PTGS2 (COX2), TNFAIP6 and TNFSF4 [10, 12]: reversed | effect on TGFβ-regulated cell proliferation genes (PDGFA, IGFBP10, IGF1, PTHLH, CDC25B, CUL5) [10, 12]: opposed | effect on fibrosis and ECM gene cluster up-regulated by TGFβ [10, 12]: down-regulated | effect on gene expression in unstimulated human cardiac fibroblasts ([10]; microarray, 24 and 48 h): no significant effects

COC(=O)[C@@]1(OC)C[C@H]2O[C@]1(C)n1c3ccccc3c3c4c(c5c6ccccc6n2c5c31)C(=O)N(C)C4 [KT5823]
effect on BNP induced ERK phosphorylation [3]: completely blocked

COc1cccc(-c2cc(=O)c3ccccc3o2)c1N [PD98059]
effect on BNP inhibition of TGFβ-induced Collagen-1 expression, real-time RT-PCR ([1]; 48 h): reversed | effect on BNP inhibition of TGFβ-induced Collagen-1 expression, Western blot [2]: reversed

N#CC(=C(/N)Sc1ccccc1N)/C(C#N)=C(\N)Sc1ccccc1N [U0126]
effect on BNP inhibition of TGFβ-induced Collagen-1 expression, real-time RT-PCR ([1]; 48 h): reversed | effect on BNP inhibition of TGFβ-induced Collagen-1 expression, Western blot [2]: reversed | effect on BNP induced ERK phosphorylation [3]: completely blocked
